From ChEMBL document CHEMBL1201862, “PubChem BioAssay data set” (2004)
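How tested: cells in 96-well plates exposed to compound for 48 hours at five concentrations. Abbreviation: GI50, concentration required for 50% inhibition of growth.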 Calls of active or inactive are those of the source. No stated cut-off is given here; in the data, active = GI50 up to about 1.1 µM and inactive = higher.

Experiments:
Experiment in all cases: growth of human tumour cells (NCI), 48 h
786-0 = tested on: 786-0
EKVX = tested on: EKVX
HOP-62 = tested on: HOP-62
IGROV-1 = tested on: IGROV-1
MCF7 = tested on: MCF7
MDA-MB-435 = tested on: MDA-MB-435
Malme-3M = tested on: Malme-3M
OVCAR-3 = tested on: OVCAR-3
OVCAR-4 = tested on: OVCAR-4
OVCAR-8 = tested on: OVCAR-8
SK-MEL-5 = tested on: SK-MEL-5
SK-OV-3 = tested on: SK-OV-3
SNB-75 = tested on: SNB-75
SW-620 = tested on: SW-620
T47D = tested on: T47D
TK-10 = tested on: TK-10
UACC-257 = tested on: UACC-257
UACC-62 = tested on: UACC-62
COLO 205 = tested on: COLO 205
MDA-N = tested on: MDA-N

Measured: GI50

CC(Cc1ccc(O)cc1)NCC(O)c1ccc(O)c(O)c1 (centres undefined)
inactive: 786-0 > 100 µM | EKVX > 100 µM | HOP-62 > 100 µM | IGROV-1 > 100 µM | MCF7 > 100 µM | MDA-MB-435 > 100 µM | Malme-3M > 100 µM | OVCAR-3 81.7 µM | OVCAR-4 > 100 µM | OVCAR-8 > 100 µM | SK-MEL-5 > 100 µM | SK-OV-3 > 100 µM | SNB-75 > 100 µM | SW-620 > 100 µM | T47D > 100 µM | TK-10 > 100 µM | UACC-257 > 100 µM | UACC-62 > 100 µM

CC(C)(C)Nc1noc(=O)n1C(C)(C)C
inactive: 786-0 > 100 µM | COLO 205 > 100 µM | EKVX > 100 µM | HOP-62 > 100 µM | IGROV-1 > 100 µM | MCF7 > 100 µM | MDA-MB-435 > 100 µM | MDA-N > 100 µM | Malme-3M > 100 µM | OVCAR-3 > 100 µM | OVCAR-4 > 100 µM | OVCAR-8 > 100 µM | SK-MEL-5 > 100 µM | SK-OV-3 > 100 µM | SNB-75 > 100 µM | SW-620 > 100 µM | TK-10 > 100 µM | UACC-257 > 100 µM | UACC-62 > 100 µM

C=C(C)[C@H]1C=C[C@@H](OC(C)=O)[C@@]2(COC(C)=O)[C@H](OC(=O)CCC)[C@H]3[C@@H](OC(C)=O)[C@@H](C)C[C@]3(O)C(=O)[C@@](C)(OC(C)=O)[C@H]12
inactive: 786-0 39.7 µM | COLO 205 22 µM | EKVX 38.2 µM | IGROV-1 32.1 µM | MCF7 42.3 µM | MDA-MB-435 15.3 µM | Malme-3M 45.3 µM | OVCAR-4 35.6 µM | OVCAR-8 29.7 µM | SK-MEL-5 34.7 µM | SNB-75 46 µM | SW-620 55 µM | T47D 27 µM | TK-10 32.2 µM | UACC-257 39.4 µM | UACC-62 66.5 µM

C/C=C/C#CC#C/C=C/C=C/C(O)CCO (centres undefined)
inactive: 786-0 > 23.1 µM | COLO 205 > 23.1 µM | EKVX > 23.1 µM | HOP-62 > 23.1 µM | IGROV-1 > 23.1 µM | Malme-3M > 23.1 µM | OVCAR-3 > 23.1 µM | OVCAR-4 > 23.1 µM | OVCAR-8 > 23.1 µM | SK-MEL-5 > 23.1 µM | SK-OV-3 > 23.1 µM | SNB-75 17.7 µM | SW-620 > 23.1 µM | TK-10 > 23.1 µM | UACC-257 > 23.1 µM | UACC-62 > 23.1 µM

O=[N+]([O-])c1cccnc1NCC1(CO)CCCC1
inactive: 786-0 26.7 µM | EKVX 27.8 µM | HOP-62 33 µM | IGROV-1 18.3 µM | MCF7 42.7 µM | MDA-MB-435 22.4 µM | MDA-N 21.4 µM | Malme-3M 20.7 µM | OVCAR-3 19.8 µM | OVCAR-4 36.5 µM | OVCAR-8 19.4 µM | SK-MEL-5 17.1 µM | SNB-75 15.9 µM | SW-620 25.7 µM | TK-10 27.2 µM | UACC-257 20.6 µM

O=C1[C@H](O)[C@@H]2C(O)O[C@H]3[C@@H]2N1C[C@H]3[Si](c1ccccc1)(c1ccccc1)c1ccccc1 (some centres undefined)
inactive: 786-0 > 100 µM | COLO 205 > 100 µM | EKVX > 100 µM | HOP-62 > 100 µM | IGROV-1 > 100 µM | MCF7 > 100 µM | MDA-MB-435 > 100 µM | OVCAR-3 > 100 µM | OVCAR-4 > 100 µM | OVCAR-8 > 100 µM | SK-MEL-5 > 100 µM | SK-OV-3 > 100 µM | SNB-75 5.94 µM | SW-620 > 100 µM | T47D 29.1 µM | TK-10 > 100 µM | UACC-257 > 100 µM | UACC-62 > 100 µM

CSc1nnc(C(C#N)C#N)nn1
inactive: 786-0 > 100 µM | COLO 205 > 100 µM | EKVX > 100 µM | HOP-62 > 100 µM | IGROV-1 > 100 µM | Malme-3M > 100 µM | OVCAR-3 > 100 µM | OVCAR-4 > 100 µM | OVCAR-8 > 100 µM | SK-MEL-5 > 100 µM | SK-OV-3 > 100 µM | SNB-75 > 100 µM | SW-620 > 100 µM | TK-10 > 100 µM | UACC-257 > 100 µM | UACC-62 > 100 µM

CC(=O)Nc1ccc(C(=O)NN2C(=O)C(Cl)C2c2ccccc2O)cc1 (centres undefined)
inactive: 786-0 9.06 µM | COLO 205 45.2 µM | EKVX 99.8 µM | HOP-62 14.2 µM | IGROV-1 > 100 µM | Malme-3M 82.2 µM | OVCAR-3 3.26 µM | OVCAR-4 > 100 µM | OVCAR-8 42.2 µM | SK-MEL-5 > 100 µM | SK-OV-3 12.9 µM | SNB-75 36.8 µM | SW-620 > 100 µM | TK-10 51.4 µM | UACC-257 > 100 µM | UACC-62 37.2 µM

COc1c(O)ccc(/C=N/NC(=S)NCOCCOC(C)=O)c1OC
inactive: 786-0 > 100 µM | COLO 205 > 100 µM | EKVX > 100 µM | HOP-62 > 100 µM | IGROV-1 > 100 µM | Malme-3M > 100 µM | OVCAR-3 > 100 µM | OVCAR-4 > 100 µM | OVCAR-8 > 100 µM | SK-MEL-5 > 100 µM | SK-OV-3 > 100 µM | SNB-75 > 100 µM | SW-620 > 100 µM | TK-10 > 100 µM | UACC-257 > 100 µM | UACC-62 > 100 µM

Cc1ccc(/C=C2\CCCC(C(NO)c3ccc(C)cc3)C2=NO)cc1 (centres undefined)
inactive: 786-0 58.3 µM | COLO 205 19.1 µM | EKVX 44.4 µM | HOP-62 59.8 µM | IGROV-1 > 100 µM | Malme-3M 52.2 µM | OVCAR-3 16.7 µM | OVCAR-4 20 µM | OVCAR-8 53 µM | SK-MEL-5 21.2 µM | SK-OV-3 > 100 µM | SNB-75 28 µM | SW-620 42.6 µM | TK-10 > 100 µM | UACC-257 29.6 µM | UACC-62 89.5 µM

CN1NC2(CCCCC2)ON=C1c1ccccc1
inactive: 786-0 > 100 µM | COLO 205 > 100 µM | EKVX > 100 µM | HOP-62 > 100 µM | IGROV-1 > 100 µM | Malme-3M > 100 µM | OVCAR-3 > 100 µM | OVCAR-4 > 100 µM | OVCAR-8 > 100 µM | SK-MEL-5 > 100 µM | SK-OV-3 > 100 µM | SNB-75 > 100 µM | SW-620 > 100 µM | TK-10 > 100 µM | UACC-257 > 100 µM | UACC-62 > 100 µM

N=C1OC(c2ccc3c(c2)OCO3)C(NNS(=O)(=O)c2ccccc2)=C1O (centres undefined)
inactive: 786-0 > 100 µM | COLO 205 > 100 µM | EKVX > 100 µM | HOP-62 > 100 µM | IGROV-1 > 100 µM | Malme-3M > 100 µM | OVCAR-3 > 100 µM | OVCAR-4 > 100 µM | OVCAR-8 > 100 µM | SK-MEL-5 38.1 µM | SK-OV-3 > 100 µM | SNB-75 > 100 µM | SW-620 > 100 µM | TK-10 > 100 µM | UACC-257 > 100 µM | UACC-62 > 100 µM
